This is an account of results in patent US12564622B2, “Preventing cytokine release syndrome” (priority 2017, dated 2026).

For assay [1], the system named is polymicrobial peritoneal sepsis induced by CLP. Kind of assay: Cecal ligation and puncture (CLP) sepsis. It is filed as in vivo, mouse (C57BL/6). The conditions noted are these: for circulating pro-inflammatory cytokines after CLP: pre-treatment. As to the method:
(§1) Cecal ligation and puncture (CLP) was performed as described elsewhere (Rittirsch et al., 2009 Nature Protocols, 4:31-6). Briefly, six-to-eight week old female C57BL/6 mice were anesthetized and following abdominal incision, the cecum was ligated at about 14 the distance from the luminal entry to its tip. The ligated cecum was punctured through and through with a 22 G needle at ½ and ¾ the distance from the luminal entry to its tip. A small amount of the cecal content was gently pushed out of the four openings into the peritoneum. Subsequently, the abdominal muscles were sutured and the skin was closed with two staples. Five hundred microliters of saline were immediately injected subcutaneously to the mice. For the groups treated with antibiotics, imipenem (Sigma) was injected subcutaneously at 25 mg/kg starting from 20 hours after CLP, with a schedule of twice a day on day one and once a day thereafter for 10 days. Human ANP (Sigma) was dissolved in saline, loaded in mini-osmotic pumps (ALZET) with a release rate of 12 μg/day and implanted subcutaneously in the back of mice 12 hours before the CLP, with pumps loaded with saline serving as controls. Metyrosine was freshly dissolved in PBS and injected IP at 60 mg/kg/day for three days before the CLP. Twenty minutes before the CLP, metyrosine was injected at 60 mg/kg IP into the right side. The control groups were injected with PBS. For the following 4 days, metyrosine was injected at 30 mg/kg/day IP into the right side. Hydration of mice was supported by daily subcutaneous injection of 0.5 ml saline.
as §1, with “CLP” for “Cecal ligation and puncture (CLP)”, “(see, e.g., Rittirsch” for “(Rittirsch”, “2008 Rev Immunol 8:776-787).” for “2009 Nature Protocols, 4:31-6).”, “6-8 weeks” for “six-to-eight week”, “¼” for “14”, “days.” for “days. Human ANP (Sigma) was dissolved in saline, loaded in mini-osmotic pumps (ALZET) with a release rate of 12 μg/day and implanted subcutaneously in the back of mice 12 hours before the CLP, with pumps loaded with saline serving as controls.”

The test system of assay [2] is mouse peritoneal macrophages. Kind of assay: Peritoneal macrophage catecholamine and cytokine production. The following applies: for cytokine release: ANP 5 μg/ml or metyrosine 2 mM. It counts as cell-based.
Procedure: Isolation of elicited macrophages from mouse peritoneum followed previously described procedures with minor modifications (Zhang et al., “The isolation and characterization of murine macrophages,” Curr Protoc Immunol Chapter 14, Unit 14.1 (November, 2008)). Four days prior to the harvest, 1 ml of 3% Brewer's thioglycollate medium (BD) was injected IP in female 2-3 months old BALB/c mice. Mice were euthanized by cervical dislocation and the skin of the belly was cut open without penetrating the muscle layer. Using a syringe with a 22 G needle, 5 ml of cold PBS containing 5 mM EDTA was injected carefully into the peritoneal cavity. After massaging gently for 1-2 minutes, a 1-ml syringe without needle was used to extract the peritoneal contents containing residential macrophages. Cells were centrifuged at 400 g for 10 minutes at 4° C., resuspended in DMEM/F12 medium supplemented with 1% FBS and antibiotics and distributed in 48-well plates at a concentration of 0.5×10^6 cells/well. After incubation at 37° C. for 2 hours, cells were rinsed three times with 0.5 ml media and then 250 μl of media was added to each well. […] For stimulation, the cells were incubated for 24 hours with LPS at 50 μg/ml. […] To stimulate macrophages, they were exposed to epinephrine at 15 ng/ml for 24 hours at 37° C. After the incubation, supernatants were collected from the wells and mixed with 5 mM EDTA and 4 mM sodium metabisulfite for preservation of catecholamines and stored at −80° C. […] Thus, any epinephrine identified in the media must have been secreted by cells in the last 24 hours prior to harvesting the media.
Isolation of elicited macrophages from mouse peritoneum followed previously described procedures with minor modifications66. Four days prior to the harvest, 1 ml of 3% Brewer's thioglycollate medium (BD) was injected IP in female 2-3 months old BALB/c mice or 4-6 weeks old conditional TH knockout mice. Mice were euthanized by cervical dislocation and the skin of the belly was cut open without penetrating the muscle layer. Using a syringe with a 25 G needle, 5 ml of cold PBS containing 5 mM EDTA was injected carefully into the peritoneal cavity. After massaging gently for 1-2 minutes, a 1-ml syringe without needle was used to extract the peritoneal contents containing residential macrophages. Cells were centrifuged at 400 g for 10 minutes at 4° C., resuspended in DMEM/F12 medium supplemented with 1% FBS and antibiotics and distributed in 48-well plates at a concentration of 0.5×10^6 cells/well. After incubation at 37° C. for 2 hours, cells were rinsed three times with 0.5 ml media and then 250 μl of media was added to each well. […] For stimulation, the cells were incubated for 24 hours with LPS at 50 μg/ml. […] To stimulate macrophages, they were exposed to epinephrine at 15 ng/ml for 24 hours at 37° C. After the incubation, supernatants were collected from the wells and mixed with 5 mM EDTA and 4 mM sodium metabisulfite for preservation of catecholamines and stored at −80° C. […] Thus, any epinephrine identified in the media must have been secreted by cells in the last 24 hours prior to harvesting the media.
The subject of assay [3] is Raji-bearing NSGS mice with low tumour burden treated with hCART19. Description: hCART19 treatment of Raji-bearing NSGS mice, low tumour burden. It counts as in vivo, mouse (NSGS). The conditions noted are these: for hCART19-induced catecholamines and human and mouse cytokines: metyrosine IP or ANP by osmotic pump; for prevention of CRS (mouse cytokines IL-6, KC, MIP-2): with hCART19. From the text:
Six to eight weeks old female NSG-SGM3 (NSGS) mice (NOD.Cg-Prkdcscid Il2rgtm1WjlTg (CMV-IL3, CSF2, KITLG) 1Eav/MloySzJ, Stock #013062) were purchased from the Jackson Laboratory. Raji cells were transfected with a luciferase construct via lentivirus to create Raji-luc cells. NSGS is a triple transgenic strain expressing human IL3, GM-CSF and SCF combine the features of the highly immunodeficient NOD scid gamma (NSG) mouse. One day before the injection of Raji cells, mice were irradiated at a dose of 2 Gy in a CIXD Xstahl device. In high tumor burden experiments in FIG. 5, 10^6 Raji-luc cells were injected IV via tail vein. Six days later, tumor loads were assessed using a Xenogen instrument and 15×10^6 hCART19 cells or untransduced T-cells were injected IV. In low tumor burden experiments in FIG. 6, 2×10^5 Raji-luc cells were injected IV via tail vein. Four days later, tumor loads were assessed using a Xenogen instrument and 15×10^6 hCART19 cells were injected IV. Metyrosine was injected IP at 60 mg/kg/day for three days before the hCART19 injection. On the day of CART19 injection, a fourth dose of 60 mg/kg was given IP and the mice were subsequently injected four more times at daily intervals at 30 mg/kg.

Assay [4] concerns human U937-derived macrophage cells. Description: U937 macrophage catecholamine and cytokine production. It counts as cell-based. The following applies: LPS 1 μg/ml and/or epinephrine 15 ng/ml, metyrosine 2 mM. As to the method: Human U937 cells were cultured in RPMI 1640 media with 5% FBS and antibiotics, and were differentiated to M1 macrophage-like cells by incubating with 20 nM phorbol 12-myristate 13-acetate (PMA, Sigma) for 24 hours and further culturing in RPMI 1640 media with 5% FBS and antibiotics for another 72 hours. The experiments with U937 were set up in the same way as described above with peritoneal macrophages. […] Cells were incubated for 24 hours with LPS at 1 μg/ml.

Another assay concerns LPS-injected BALB/c mice. It counts as in vivo, mouse (BALB/c). The method, then: LPS from Escherichia coli 0111:B4 was formulated as a 10 mg/ml solution in water and stored in −80° C. LPS was injected intraperitoneally at a dose of 3.5 mg/kg. […] Human ANP (Sigma) was dissolved in saline, loaded in mini-osmotic pumps (ALZET) with a release rate of 12 μg/day and implanted subcutaneously in the back of mice 12 hours before the LPS injection. Mice implanted with pumps loaded with saline served as controls. […] […] The control groups were injected with PBS. […] Hydration of mice was supported by daily subcutaneous injection of 0.5 ml saline.
LPS from Escherichia coli 0111:B4 was formulated as a 10 mg/ml solution in water and stored in −80° C. In Balb/C mice, LPS was injected intraperitoneally at a lethal dose of 3.5 mg/kg. […] In experiments with catecholamine pumps, a sublethal dose with 15-35% death rate was optimized in Balb/C mice. In TH+/+ and TH^ΔLysM mice with C57BL/6 background, a lethal dose was optimized at 5 mg/kg. Human ANP (Sigma) was dissolved in saline, loaded in mini-osmotic pumps (ALZET) with a release rate of 12 μg/day and implanted subcutaneously in the back of mice 12 hours before the LPS injection. Mice implanted with pumps loaded with saline served as controls. Metyrosine was freshly dissolved in PBS and injected IP at the indicated doses for three days prior to the LPS treatment. One hour before the LPS injection, metyrosine was injected into the lower abdomen contralateral to the side of LPS injection. The control groups were injected with PBS. For the following 3 days, metyrosine was injected IP at reduced indicated doses. Hydration of mice was supported by daily subcutaneous injection of 0.5 ml saline.

Where [5] appears, read: LPS 50 μg/ml, 24 hours, pre-incubation 10 minutes with ANP 5 μg/ml or metyrosine 2 mM.
Setting [6] is: LPS, epinephrine or the combination of both, metyrosine 2 mM.

Values joined by “and” are separate entries in the source; they are usually repeats but may differ in a detail not shown here. Identical values can stand only once. “Also recorded” adds a separate entry of the source.

Consider `CC[C@H](C)[C@@H]1NC(=O)[C@H](CCCNC(=N)N)NC(=O)[C@H](CC(=O)O)NC(=O)[C@H](CCSC)NC(=O)[C@H](CCCNC(=N)N)NC(=O)CNC(=O)CNC(=O)[C@H](Cc2ccccc2)NC(=O)[C@@H](NC(=O)[C@H](CO)NC(=O)[C@H](CO)NC(=O)[C@H](CCCNC(=N)N)NC(=O)[C@H](CCCNC(=N)N)NC(=O)[C@H](CC(C)C)NC(=O)[C@@H](N)CO)CSSC[C@@H](C(=O)N[C@@H](CC(N)=O)C(=O)N[C@@H](CO)C(=O)N[C@@H](Cc2ccccc2)C(=O)N[C@@H](CCCNC(=N)N)C(=O)N[C@@H](Cc2ccc(O)cc2)C(=O)O)NC(=O)CNC(=O)[C@H](CC(C)C)NC(=O)CNC(=O)[C@H](CO)NC(=O)[C@H](CCC(N)=O)NC(=O)[C@H](C)NC(=O)CNC1=O` [ANP, atrial natriuretic peptide], for which the “circulating pro-inflammatory cytokines after CLP” value in assay [1] (24 hours after CLP) is listed as “greatly reduced”. Also, the “survival after CLP” value in assay [1] (ANP by osmotic pump implanted 12 hours before CLP) is “almost half of the animals survived the acute phase”. The “pathologic examination (peritoneum, lungs, liver)” value in assay [1] (ANP pre-treated, 24 hours after CLP) is “less peritoneal inflammation, pulmonary septal thickening, and hepatic inflammation; also recorded: lower or absent pulmonary septal thickening and vacuolization”. Besides, the cytokine release entry in assay [2] (LPS 50 μg/ml, 24 hours) is listed as “reduction in the cytokine levels”. Besides, the catecholamine production result in assay [2] (setting [5]) is given as “reduce the production of all three major catecholamines; also recorded: suppress the increased production; also recorded: effectively blocked”; in assay [2] (epinephrine 15 ng/ml stimulated, ANP pre-treatment) it was “inhibited this production”. For the same molecule, the “catecholamine and cytokine (IL-6, TNF-α, MIP-2, KC) production” value in assay [2] (epinephrine alone 15 ng/ml) is “also suppressed”. Also, the amplified inflammatory response result in assay [2] (epinephrine in combination with LPS) is given as “inhibited”. Besides, the “hCART19-induced catecholamines and human and mouse cytokines” value in assay [3] (low tumour burden) is “abrogated”. Also, the “prevention of CRS (mouse cytokines IL-6, KC, MIP-2)” value in assay [3] was “effective at preventing CRS”.

For the molecule `C[C@](N)(Cc1ccc(O)cc1)C(=O)O` [metyrosine, α-methyl-tyrosine], the “circulating pro-inflammatory cytokines after CLP” value in assay [1] (24 hours after CLP) is “substantially reduced”. Also, in assay [1] (metyrosine IP pre-treatment), the “mice surviving CLP (acute phase)” value is 20% and 22%. Also, the “fraction of mice surviving CLP” value in assay [1] (metyrosine pre-treatment plus imipenem from 20 hours after CLP) was “> ⅔”. The cytokine release entry in assay [2] (LPS 50 μg/ml, 24 hours) was “similarly inhibited”. Also, the catecholamine production result in assay [2] (setting [5]) is on record as “greatly reduced; also recorded: effectively blocked”. In assay [2] (setting [6]), the catecholamines produced result is “greatly reduced” and the cytokines released result is “diminished”. Further, in assay [4], the catecholamines and cytokines entry was “Comparable results were obtained”. In the assay with LPS-injected BALB/c mice (LPS, metyrosine pre-treatment), the levels of catecholamines result was “substantially reduced” and the “levels of inflammatory cytokines” value is listed as “substantially reduced”. In addition, in the assay with LPS-injected BALB/c mice (lethal dose LPS IP, metyrosine pre-treatment), the mice surviving was ~70% and ~75%. For the same molecule, the “efficacy at 20 mg/kg” value with LPS-injected BALB/c mice (lethal dose LPS, metyrosine 20 mg/kg) is “ineffective”. In addition, the “dependence of efficacy on dose” value in the assay with LPS-injected BALB/c mice (lethal dose LPS, metyrosine 20, 30, 40 mg/kg) is “dose-dependent”. In assay [3] (hCART19 plus metyrosine), the “animals with tumors eradicated (BLI below 10^6), day 6” value is recorded as 6 out of 10 and the “animals with tumors eradicated (BLI below 10^6), day 19” value is on record as 4 out of 10. Moreover, the “reduction of lymphoma burden within one week versus hCART19 controls” value in assay [3] (hCART19 plus metyrosine, BLI) is “significantly more so”. In assay [3] (low tumour burden), the long-term survival was 40%; the “hCART19-induced catecholamines and human and mouse cytokines” value was “reduced”. Further, the “prevention of CRS (mouse cytokines IL-6, KC, MIP-2)” value in assay [3] is “effective at preventing CRS”.
